Experimental data published in ChEMBL document CHEMBL1121424, “Orally active cephalosporins and penicillins” (J Med Chem, 1980).
In brackets after ≈: the same amount, converted by molar mass.

What was measured:
Enterobacter cloacae = assay: Tested for inhibition of visible growth of Enterobacter cloacae; format: functional
Klebsiella aerogenes = assay: Tested for inhibition of visible growth of Enterobacter aerogenes; format: functional
Escherichia coli [1] = assay: Tested for inhibition of visible growth of Escherichia coli; format: functional
Escherichia coli [2] = assay: Tested for the antimicrobial activity against Escherichia coli in mice perorally; format: functional; conditions: po
Escherichia coli [3] = assay: Tested for the antimicrobial activity against Escherichia coli in mice; format: functional
[4] = (§1) Tested for the antimicrobial activity against Salmonella schottmuelleri in mice; format: functional
[5] = as §1; format: functional; remark: listed apart in the source
Streptococcus pyogenes [6] = assay: (§2) Tested for the antimicrobial activity against Streptococcus pyogenes in mice; format: functional
Mus musculus [7] = assay: Tested for the antimicrobial activity against Streptococcus pyogenes in mice, subcutaneously.; format: functional; conditions: sc
Proteus mirabilis = assay: Tested for inhibition of visible growth of Proteus mirabilis; format: functional
[8] = Tested for inhibition of visible growth of Salmonella schottmuelleri; format: functional
Staphylococcus aureus [9] = assay: Tested for inhibition of visible growth of Staphylococcus aureus, benzyl-penicillin sensitive; format: functional
Streptococcus pyogenes [10] = assay: Tested for inhibition of visible growth of Streptococcus pyogenes; format: functional
Enterococcus faecalis = assay: Tested for inhibition of visible growth of Streptococcus faecalis; format: functional
Streptococcus pneumoniae [11] = assay: Tested for inhibition of visible growth of Streptococcus pneumoniae; format: functional
Klebsiella pneumoniae = assay: Tested for inhibition of visible growth of Klebsiella pneumoniae; format: functional
Staphylococcus aureus [12] = assay: Tested for inhibition of visible growth of Staphylococcus aureus; format: functional
[13] = Tested for the peak time in mice following 12.5 mg/kg oral dose of cephalosporin; format: ADME, organism-based; parameters: dose 12.5 mg/kg, route oral; conditions: mouse, in vivo, read-out: Peak time (converted)
Staphylococcus aureus [14] = assay: Tested for the antimicrobial activity against Staphylococcus aureus; format: functional
Streptococcus pneumoniae [15] = assay: (§3) Tested for the antimicrobial activity against Streptococcus pneumoniae in mice; format: functional
Streptococcus pneumoniae [16] = assay: as §3; format: functional; remark: listed apart in the source
Streptococcus pyogenes [17] = assay: as §2; format: functional; remark: listed apart in the source
Staphylococcus aureus [18] = assay: Tested for the antimicrobial activity against Staphylococcus aureus, benzyl-penicillin sensitive in mice, perorally; format: functional; conditions: po
[19] = Tested for the peak time in mice following 40 mg/kg oral dose of cephalosporin; format: ADME, organism-based; parameters: dose 40 mg/kg, route oral; conditions: mouse, in vivo, read-out: Peak time (converted)
Mus musculus [20] = organism: Mus musculus; assay: Tested for the antimicrobial activity against Staphylococcus aureus, benzyl-penicillin resistant in mice, perorally; format: functional; conditions: po
[21] = tested for the peak time in mice following 6.9 mg/kg, oral (administered as the hydrochloride salt dissolved in H2O); format: ADME, organism-based; parameters: dose 6.9 mg/kg, route oral; conditions: mouse, in vivo, read-out: Peak time (converted)
[22] = Tested for the peak time in mice following 11.8 mg/kg, oral (administered as the sodium salt dissolved in H2O); format: ADME, organism-based; parameters: dose 11.8 mg/kg, route oral; conditions: mouse, in vivo, read-out: Peak time (converted)
Mus musculus [23] = assay: Tested for the antimicrobial activity against […], benzyl-penicillin sensitive in mice, subcutaneously; format: functional; conditions: sc
Mus musculus [24] = organism: Mus musculus; assay: Tested for the antimicrobial activity against Staphylococcus aureus, benzyl-penicillin sensitive in mice, perorally; conditions: po
in vivo = conditions: mouse, po, 43 mg/kg
Description: Tested for the peak time in mice following 43 mg/kg oral dose of cephalosporin

SMILES | MIC (Enterobacter cloacae) [µg/mL] | MIC (Klebsiella aerogenes) [µg/mL] | MIC (Escherichia coli [1]) [µg/mL] | MIC (Proteus mirabilis) [µg/mL] | MIC [8] [µg/mL] | MIC (Staphylococcus aureus [9]) [µg/mL] | MIC (Streptococcus pyogenes [10]) [µg/mL] | MIC (Enterococcus faecalis) [µg/mL] | MIC (Streptococcus pneumoniae [11]) [µg/mL] | MIC (Klebsiella pneumoniae) [µg/mL] | MIC (Staphylococcus aureus [12]) [µg/mL] | ED50 (Escherichia coli [2]) [mg/kg] | ED50 (Escherichia coli [3]) [mg/kg] | ED50 [4] [mg/kg] | ED50 [5] [mg/kg] | ED50 (Streptococcus pyogenes [6]) [mg/kg] | ED50 (Staphylococcus aureus [14]) [mg/kg] | ED50 (Streptococcus pneumoniae [15]) [mg/kg] | ED50 (Streptococcus pneumoniae [16]) [mg/kg] | ED50 (Streptococcus pyogenes [17]) [mg/kg] | other results
NC(C(=O)NC1C(=O)N2C(C(=O)O)=C(CSc3cn[nH]n3)CS[C@H]12)c1ccc2c(c1)CCO2 (some centres not stated) | 50 (≈ 102 µM) | 25 (≈ 51.2 µM) | 12.5 (≈ 25.6 µM) | 100 (≈ 205 µM) | 3.1 (≈ 6.35 µM) | 0.4 (≈ 0.819 µM) | 0.1 (≈ 0.205 µM) | 100 (≈ 205 µM) | 0.1 (≈ 0.205 µM) | 6.2 (≈ 12.7 µM) | 1.6 (≈ 3.27 µM) | 19 | 11 | > 40 | 30 | 0.27 |  |  |  |  | ED50 (Mus musculus [7]): 0.19 mg/kg
CC1=C(C(=O)O)N2C(=O)C(NC(=O)[C@H](N)c3ccc4c(c3)OCO4)C2SC1 (some centres not stated) | > 100 | > 100 | 25 (≈ 63.9 µM) | > 100 | 12.5 (≈ 31.9 µM) | 0.4 (≈ 1.02 µM) | 0.8 (≈ 2.04 µM) | > 100 | 1.6 (≈ 4.09 µM) | 25 (≈ 63.9 µM) | 3.1 (≈ 7.92 µM) | 28 | 15 | 37 | 33 | 1 | 0.45 | 19 | 26 | 1.4 | Tmax [19]: 10 min; ED50 (Mus musculus [20]): 3.1 mg/kg; ED50 (Staphylococcus aureus [18]): 0.61 mg/kg
Cc1nnc(SCC2=C(C(=O)O)N3C(=O)C(NC(=O)[C@H](N)c4ccc5c(c4)OCO5)C3SC2)s1 (some centres not stated) | 25 (≈ 47.9 µM) | 25 (≈ 47.9 µM) | 12.5 (≈ 24 µM) | > 100 | 1.6 (≈ 3.07 µM) | 0.2 (≈ 0.383 µM) | 0.1 (≈ 0.192 µM) | 50 (≈ 95.9 µM) | 0.1 (≈ 0.192 µM) | 6.2 (≈ 11.9 µM) | 3.1 (≈ 5.94 µM) | 33.9 | 10.6 | 40 | 8 | 0.84 | 0.29 | 1.3 | 0.79 | 0.23 | Tmax [21]: 30 min; Tmax [22]: 30 min; ED50 (Staphylococcus aureus [18]): 0.8 mg/kg
Cn1nnnc1SCC1=C(C(=O)O)N2C(=O)C(NC(=O)[C@H](N)c3ccc4c(c3)OCO4)C2SC1 (some centres not stated) | 6.2 (≈ 12.3 µM) | 3.1 (≈ 6.13 µM) | 3.1 (≈ 6.13 µM) | 25 (≈ 49.5 µM) | 0.8 (≈ 1.58 µM) | 0.2 (≈ 0.396 µM) | 0.05 (≈ 0.0989 µM) | 50 (≈ 98.9 µM) | 0.1 (≈ 0.198 µM) | 3.1 (≈ 6.13 µM) | 1.6 (≈ 3.16 µM) |  | 2.1 | 16 | < 3.1 | 0.37 |  | > 10 | 0.74 | 0.14 | ED50 (Mus musculus [23]): 0.31 mg/kg; ED50 (Mus musculus [24]): > 2 mg/kg

Further compounds by falling MIC (Enterobacter cloacae), results first:

MIC (Enterobacter cloacae) [µg/mL] | MIC (Klebsiella aerogenes) [µg/mL] | MIC (Escherichia coli [1]) [µg/mL] | MIC (Proteus mirabilis) [µg/mL] | MIC [8] [µg/mL] | MIC (Staphylococcus aureus [9]) [µg/mL] | MIC (Streptococcus pyogenes [10]) [µg/mL] | MIC (Enterococcus faecalis) [µg/mL] | MIC (Streptococcus pneumoniae [11]) [µg/mL] | MIC (Klebsiella pneumoniae) [µg/mL] | MIC (Staphylococcus aureus [12]) [µg/mL] | SMILES | ED50 (Escherichia coli [2]) [mg/kg] | ED50 (Escherichia coli [3]) [mg/kg] | ED50 [4] [mg/kg] | ED50 [5] [mg/kg] | ED50 (Streptococcus pyogenes [6]) [mg/kg] | ED50 (Staphylococcus aureus [14]) [mg/kg] | ED50 (Streptococcus pneumoniae [15]) [mg/kg] | ED50 (Streptococcus pneumoniae [16]) [mg/kg] | ED50 (Streptococcus pyogenes [17]) [mg/kg] | other results
50 (≈ 102 µM) | 50 (≈ 102 µM) | 12.5 (≈ 25.5 µM) | 50 (≈ 102 µM) | 1.6 (≈ 3.26 µM) | 0.4 (≈ 0.815 µM) | 0.2 (≈ 0.408 µM) | 50 (≈ 102 µM) | 0.2 (≈ 0.408 µM) | 3.1 (≈ 6.32 µM) | 0.8 (≈ 1.63 µM) | N[C@@H](C(=O)NC1C(=O)N2C(C(=O)O)=C(CSc3c[nH]nn3)CSC12)c1ccc2c(c1)OCO2 (some centres not stated) | 24.8 | 9.1 | 12.5 | 8.1 | 0.41 | 0.13 | 5 | 4.1 | 0.32 | Tmax [13]: 20 min; ED50 (Staphylococcus aureus [18]): 0.7 mg/kg
25 (≈ 72 µM) | 25 (≈ 72 µM) | 6.2 (≈ 17.8 µM) | 12.5 (≈ 36 µM) | 3.1 (≈ 8.92 µM) | 0.8 (≈ 2.3 µM) | 0.4 (≈ 1.15 µM) | ≥ 100 | 1.6 (≈ 4.61 µM) | 3.1 (≈ 8.92 µM) | 3.1 (≈ 8.92 µM) | CC1=C(C(=O)O)N2C(=O)[C@@H](NC(=O)[C@H](N)c3ccccc3)[C@H]2SC1 [CEPHALEXIN ANHYDROUS] |  |  |  |  |  |  |  |  |  | Tmax (in vivo): 15 min
